From patent publication US8652231B2, “Metal complexes; use thereof for the preparation of compositions for agricultural use” (Timac Argo International, priority 2008, dated 2014)

Test: Capacity of the test compounds for keeping iron soluble in the presence of calcium
Type: physicochemical
Conditions: 20 mg iron per liter, pH 7, 8, 9 and 10, CaCl2 0.020 M, after three days, filtered; FIG. 1
Method: For each product tested, four solutions were prepared containing 20 milligrams of iron per liter and having respectively a pH of 7, 8, 9 and 10 (the pH having been adjusted with sodium hydroxide or hydrochloric acid).
Four similar solutions were prepared, each containing calcium chloride CaCl2 (0.020 M).
After three days, these solutions were filtered through filters with a pore size of 0.045 micrometer and the iron content in the […] was determined by inductively coupled plasma emission optical spectroscopy (ICP-EOS).
The amount of iron remaining in solution in the presence of calcium ions was calculated using the following formula:
[formula] in which: [Fe]pHi+Ca represents the concentration of iron in the filtrate from a solution (containing calcium chloride 0.020 M) with pH equal to i, expressed in milligrams per liter; [Fe]pHi represents the concentration of iron in the filtrate from a solution not containing calcium with pH equal to i, expressed in milligrams per liter. Results

Citrate-Fe(III) Complex
iron remaining in solution in the presence of calcium ions: undergoes precipitation in the range of pH between the values of 9 and 10
